Data: ChEMBL document CHEMBL1201862, “PubChem BioAssay data set” (2004)
The source made the active and inactive calls.

Assays:
Exodeoxyribonuclease V = Exodeoxyribonuclease V (Escherichia coli (strain K12), UniProt P04993+P07648+P08394); assay: RecBCD inhibition via phage-restricted bacterial growth – absorbance, V66 E. coli, mutant T4 phage, counter-screen for AddAB inhibitor project, dose response (AID 492957); assay type: functional, cell-based, Escherichia coli str. K-12 substr. MG1655
[1] = HEK-293T viability loss after treatment – luminescence, T-cell screen hits, cytotoxicity control for TCR NF-kB inhibitor project, dose response (AID 489026); assay type: functional, cell-based;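 also: cells exposed to compound about 14 hours before the viability readout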
[2] = Counterscreen for AddAB inhibitors: absorbance-based bacterial cell-based high throughput dose response assay for inhibitors of bacterial viability. [Related pubchem assays (depositor defined):AID435030, AID449728, AID449731, AID488942, AID488955, AID488956]; assay type: functional
INS1 = assay: INS-1E survival protection against cytokine death – cell-based, luminescence, retest, dose response (AID 449756); assay type: functional; conditions: Rattus norvegicus;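 also: cell death triggered by IL-1 beta plus TNF-alpha plus IFN-gamma mixture; protective hits raise ATP signal compared with cytokine alone wells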
Protein Wnt-3a = Protein Wnt-3a (Mus musculus, UniProt P27467); assay: antagonism of Wnt3a pathway luciferase reporter – Wnt-LIGHT cells, luminescence, selectivity assay for Gli-SUFU antagonist project, dose response (AID 651570); assay type: functional; conditions: read-out: IC50_Mean;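 also: Wnt-LIGHT reporter cells stimulated with conditioned medium from Wnt3a-producing cells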
Protein Wnt-3a, sequence (P27467 whole entry): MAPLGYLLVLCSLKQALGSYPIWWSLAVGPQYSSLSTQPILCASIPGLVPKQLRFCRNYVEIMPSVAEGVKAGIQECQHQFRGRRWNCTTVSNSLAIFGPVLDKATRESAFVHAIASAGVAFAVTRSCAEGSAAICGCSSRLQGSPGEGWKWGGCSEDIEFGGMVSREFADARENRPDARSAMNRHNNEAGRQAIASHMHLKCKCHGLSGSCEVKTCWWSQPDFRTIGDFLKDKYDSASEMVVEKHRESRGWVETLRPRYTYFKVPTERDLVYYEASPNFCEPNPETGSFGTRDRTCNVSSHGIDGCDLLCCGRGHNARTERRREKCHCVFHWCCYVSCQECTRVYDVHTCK

[3] = luciferase reporter signal suppression in cells – H4 neuroglioma cells, luminescence, dose response (AID 1990); assay type: functional, cell-based
[4] = Luminescence Cell-Based Dose Response HTS to Identify Inhibitors of 5'UTR Stem-Loop Driven Prion Protein mRNA Translation in H4 Neuroglioblastoma Cells. [Related pubchem assays: 1827 (Project Summary), 1813 (Primary HTS)]; assay type: functional
[5] = alpha-synuclein stem-loop luciferase translation blockers – H4 neuroglioma cells, luminescence, confirmation (AID 1988); assay type: functional, cell-based
Vero = assay: inhibition of WNV-induced cytopathic effect – cell-based, CPE readout (AID 1621); assay type: functional; conditions: Chlorocebus sabaeus
[6] = reduction of Shn3 3'UTR-driven luciferase in osteoblasts – cell-based, Clone20 osteoblasts, firefly luciferase, cherry-picked, dose response (AID 624132); assay type: functional;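 also: firefly luciferase luminescence from reporter carrying the Shn3 3'UTR in osteoblasts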
[7] = loss of viability in HepG2 cells – cell-based, CellTiter-Glo, cherry-picked, cytotoxicity control for Shn3 inhibitor project, dose response (AID 624134); assay type: functional
[8] = non-specific 3'UTR reporter inhibition in Clone20-Shn3RL – cell-based, Renilla luciferase, cherry-picked, counter-screen for Shn3 inhibitor project, dose response (AID 624133); assay type: functional
[9] = molecular target: Photoreceptor-specific nuclear receptor (Homo sapiens, UniProt Q9Y5X4); assay type: functional, cell-based;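 also: CHO-S cells with Gal4-NCOR and VP16-NR2E3 two-hybrid luciferase reporter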
Photoreceptor-specific nuclear receptor, sequence (Q9Y5X4 whole entry, the tested form may be a part): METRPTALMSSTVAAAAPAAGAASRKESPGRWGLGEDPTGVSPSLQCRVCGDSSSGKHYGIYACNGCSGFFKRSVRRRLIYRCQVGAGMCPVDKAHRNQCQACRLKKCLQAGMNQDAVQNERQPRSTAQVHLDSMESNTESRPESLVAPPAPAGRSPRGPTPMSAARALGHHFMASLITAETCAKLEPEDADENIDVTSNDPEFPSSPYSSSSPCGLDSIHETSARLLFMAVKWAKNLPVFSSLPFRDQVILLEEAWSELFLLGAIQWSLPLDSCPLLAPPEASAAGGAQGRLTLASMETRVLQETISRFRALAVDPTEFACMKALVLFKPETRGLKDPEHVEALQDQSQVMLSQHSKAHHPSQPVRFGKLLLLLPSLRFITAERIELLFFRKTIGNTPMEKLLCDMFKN

[10] = Luminescence Cell-Based Dose Confirmation HTS to Identify Activators of 5'UTR Stem-Loop Driven Alpha-Synuclein mRNA Translation in H4 Neuroglioblastoma Cells. [Related pubchem assays: 1829 (Project Summary), 1814 (Primary HTS)]; assay type: functional
[11] = Luminescence Cell-Based Dose Response HTS to Identify Activators of Luciferase Translation or Activity in H4 […] Cells. [Related pubchem assays: 1829 (Project Summary), 1814 (Primary HTS)]; assay type: functional
H4 = assay: Luminescence Cell-Based Dose Response HTS to Identify Activators of 5'UTR Stem-Loop Driven Prion Protein mRNA Translation in H4 Neuroglioblastoma Cells. [Related pubchem assays: 1829 (Project Summary), 1814 (Primary HTS)]; assay type: functional; conditions: Homo sapiens
[12] = molecular target: Multidrug resistance protein CDR2 (Candida albicans (strain SC5314 / ATCC MYA-2876) (Yeast), UniProt P78595); assay: blockers of Nile Red efflux by Candida CDR2 – S. cerevisiae AD1-8u, singleplex, Cherry Pick2 set, dose response (AID 623994); assay type: functional; conditions: read-out: EC50_MICROM
[13] = molecular target: T1, Replicative DNA helicase DnaB (Mycobacterium tuberculosis, UniProt P9WMR3); assay: DnaB intein splicing inhibitors, dose response, biochemical, cell-free fluorescence (AID 449749); assay type: functional
T1 sequence (P9WMR3 whole entry): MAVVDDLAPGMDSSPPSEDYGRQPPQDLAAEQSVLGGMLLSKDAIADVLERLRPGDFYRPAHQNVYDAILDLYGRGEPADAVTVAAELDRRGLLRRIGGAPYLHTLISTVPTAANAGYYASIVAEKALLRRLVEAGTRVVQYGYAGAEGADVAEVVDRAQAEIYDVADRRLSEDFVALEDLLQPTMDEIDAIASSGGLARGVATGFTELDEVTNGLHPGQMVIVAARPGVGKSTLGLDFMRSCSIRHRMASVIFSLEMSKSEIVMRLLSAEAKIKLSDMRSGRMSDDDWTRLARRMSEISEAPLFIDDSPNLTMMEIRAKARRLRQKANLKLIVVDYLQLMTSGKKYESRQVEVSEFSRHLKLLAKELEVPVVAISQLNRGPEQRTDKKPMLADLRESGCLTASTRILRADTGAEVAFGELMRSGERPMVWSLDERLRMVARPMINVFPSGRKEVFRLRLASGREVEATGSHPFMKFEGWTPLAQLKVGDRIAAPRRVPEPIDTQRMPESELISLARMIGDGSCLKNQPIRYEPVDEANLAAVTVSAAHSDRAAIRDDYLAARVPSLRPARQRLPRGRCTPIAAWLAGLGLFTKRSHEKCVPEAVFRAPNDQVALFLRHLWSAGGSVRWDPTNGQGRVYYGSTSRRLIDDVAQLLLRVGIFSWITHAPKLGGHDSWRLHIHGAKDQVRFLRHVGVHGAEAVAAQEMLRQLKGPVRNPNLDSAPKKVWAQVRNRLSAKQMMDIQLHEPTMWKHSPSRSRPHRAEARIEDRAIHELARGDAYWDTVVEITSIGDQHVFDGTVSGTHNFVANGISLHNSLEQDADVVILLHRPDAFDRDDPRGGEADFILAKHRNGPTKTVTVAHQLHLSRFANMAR

Protein RecA = molecular target: T2, Protein RecA (Mycobacterium tuberculosis, UniProt P9WHJ3); assay: Fluorescence Cell-Free Homogeneous Dose Retest to Identify Inhibitors of RecA-Intein Splicing Activity. [Related pubchem assays (depositor defined):AID2097, AID2223, AID489010, AID492950]; assay type: functional
T2 sequence (P9WHJ3 whole entry): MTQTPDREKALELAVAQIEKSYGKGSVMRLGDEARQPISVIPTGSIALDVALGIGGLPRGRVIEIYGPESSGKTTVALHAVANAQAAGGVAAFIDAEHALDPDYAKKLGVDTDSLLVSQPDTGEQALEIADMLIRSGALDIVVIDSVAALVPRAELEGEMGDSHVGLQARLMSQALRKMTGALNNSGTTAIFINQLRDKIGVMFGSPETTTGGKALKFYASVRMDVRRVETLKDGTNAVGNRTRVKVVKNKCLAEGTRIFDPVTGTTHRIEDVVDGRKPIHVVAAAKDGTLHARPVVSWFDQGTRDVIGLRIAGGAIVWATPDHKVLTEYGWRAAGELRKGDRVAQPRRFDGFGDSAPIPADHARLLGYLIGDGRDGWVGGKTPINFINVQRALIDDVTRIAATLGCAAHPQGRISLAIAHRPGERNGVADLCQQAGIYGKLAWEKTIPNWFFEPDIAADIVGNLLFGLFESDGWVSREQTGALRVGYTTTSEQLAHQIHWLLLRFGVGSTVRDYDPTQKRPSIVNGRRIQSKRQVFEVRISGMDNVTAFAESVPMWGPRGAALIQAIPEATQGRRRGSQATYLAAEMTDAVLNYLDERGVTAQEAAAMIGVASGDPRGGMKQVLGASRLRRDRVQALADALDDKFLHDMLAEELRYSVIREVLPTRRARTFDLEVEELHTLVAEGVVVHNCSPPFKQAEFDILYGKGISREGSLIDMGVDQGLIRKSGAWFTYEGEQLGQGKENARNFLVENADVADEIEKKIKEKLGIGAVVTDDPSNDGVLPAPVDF

[14] = molecular target: Mitochondrial peptide methionine sulfoxide reductase (Bos taurus, UniProt P54149); assay type: functional;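 also: absorbance read-out, biochemical high-throughput dose-response screen for MsrA inhibitors, confirmatory; recombinant bovine MsrA coupled to E. coli TrxB with NADPH and selenocystamine; potency is for inhibitors of MsrA activity on DMSO substrate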
Mitochondrial peptide methionine sulfoxide reductase, sequence (P54149 whole entry): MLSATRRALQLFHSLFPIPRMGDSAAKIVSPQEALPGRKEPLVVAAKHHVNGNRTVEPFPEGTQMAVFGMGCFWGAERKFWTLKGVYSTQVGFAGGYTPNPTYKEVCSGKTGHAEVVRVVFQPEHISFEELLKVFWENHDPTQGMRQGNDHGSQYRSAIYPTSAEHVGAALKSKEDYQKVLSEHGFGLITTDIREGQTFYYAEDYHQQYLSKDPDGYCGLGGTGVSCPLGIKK

Exodeoxyribonuclease V, sequence (P04993 whole entry): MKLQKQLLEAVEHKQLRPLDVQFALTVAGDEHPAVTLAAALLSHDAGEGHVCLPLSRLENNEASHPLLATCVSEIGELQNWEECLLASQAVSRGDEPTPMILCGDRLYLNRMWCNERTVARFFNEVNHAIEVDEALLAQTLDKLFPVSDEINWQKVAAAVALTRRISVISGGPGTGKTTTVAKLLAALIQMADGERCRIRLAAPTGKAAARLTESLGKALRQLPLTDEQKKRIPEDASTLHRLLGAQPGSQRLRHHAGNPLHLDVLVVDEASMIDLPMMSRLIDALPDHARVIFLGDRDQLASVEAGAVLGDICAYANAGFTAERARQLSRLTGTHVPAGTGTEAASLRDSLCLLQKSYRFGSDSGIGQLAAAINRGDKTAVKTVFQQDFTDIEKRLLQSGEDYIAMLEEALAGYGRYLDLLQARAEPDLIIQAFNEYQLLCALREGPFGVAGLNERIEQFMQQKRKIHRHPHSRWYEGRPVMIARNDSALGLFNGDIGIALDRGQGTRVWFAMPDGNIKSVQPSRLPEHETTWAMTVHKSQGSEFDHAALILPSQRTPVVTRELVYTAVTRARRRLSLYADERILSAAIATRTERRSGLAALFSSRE
Exodeoxyribonuclease V, sequence (P07648 whole entry): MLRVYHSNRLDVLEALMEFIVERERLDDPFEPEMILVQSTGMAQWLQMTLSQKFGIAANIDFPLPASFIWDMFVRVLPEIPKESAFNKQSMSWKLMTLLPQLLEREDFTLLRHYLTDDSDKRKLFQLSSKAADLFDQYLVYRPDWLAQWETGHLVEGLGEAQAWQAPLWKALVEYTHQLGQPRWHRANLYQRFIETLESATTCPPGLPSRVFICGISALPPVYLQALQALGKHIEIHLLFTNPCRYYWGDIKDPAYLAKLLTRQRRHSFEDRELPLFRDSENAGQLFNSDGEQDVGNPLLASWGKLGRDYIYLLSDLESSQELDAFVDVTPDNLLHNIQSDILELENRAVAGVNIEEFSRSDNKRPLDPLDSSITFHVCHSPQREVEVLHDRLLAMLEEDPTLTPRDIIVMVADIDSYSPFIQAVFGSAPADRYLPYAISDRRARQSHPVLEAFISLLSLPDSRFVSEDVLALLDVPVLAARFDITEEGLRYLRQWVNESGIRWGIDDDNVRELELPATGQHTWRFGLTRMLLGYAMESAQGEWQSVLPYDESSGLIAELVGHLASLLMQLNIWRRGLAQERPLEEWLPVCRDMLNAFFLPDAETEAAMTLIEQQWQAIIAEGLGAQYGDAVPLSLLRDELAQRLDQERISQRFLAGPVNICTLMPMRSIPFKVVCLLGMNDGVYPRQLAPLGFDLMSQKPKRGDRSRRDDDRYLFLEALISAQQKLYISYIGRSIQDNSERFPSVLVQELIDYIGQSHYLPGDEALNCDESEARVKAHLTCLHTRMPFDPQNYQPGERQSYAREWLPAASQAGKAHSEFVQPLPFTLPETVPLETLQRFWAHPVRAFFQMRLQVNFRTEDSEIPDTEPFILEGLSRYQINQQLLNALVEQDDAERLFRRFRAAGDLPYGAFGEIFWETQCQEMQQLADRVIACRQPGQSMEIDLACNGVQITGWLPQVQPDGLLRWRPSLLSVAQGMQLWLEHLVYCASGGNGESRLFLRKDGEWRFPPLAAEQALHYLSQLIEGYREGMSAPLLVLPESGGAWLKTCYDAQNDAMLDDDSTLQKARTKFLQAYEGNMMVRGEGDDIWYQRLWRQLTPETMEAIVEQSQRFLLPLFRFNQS
Exodeoxyribonuclease V, sequence (P08394 whole entry): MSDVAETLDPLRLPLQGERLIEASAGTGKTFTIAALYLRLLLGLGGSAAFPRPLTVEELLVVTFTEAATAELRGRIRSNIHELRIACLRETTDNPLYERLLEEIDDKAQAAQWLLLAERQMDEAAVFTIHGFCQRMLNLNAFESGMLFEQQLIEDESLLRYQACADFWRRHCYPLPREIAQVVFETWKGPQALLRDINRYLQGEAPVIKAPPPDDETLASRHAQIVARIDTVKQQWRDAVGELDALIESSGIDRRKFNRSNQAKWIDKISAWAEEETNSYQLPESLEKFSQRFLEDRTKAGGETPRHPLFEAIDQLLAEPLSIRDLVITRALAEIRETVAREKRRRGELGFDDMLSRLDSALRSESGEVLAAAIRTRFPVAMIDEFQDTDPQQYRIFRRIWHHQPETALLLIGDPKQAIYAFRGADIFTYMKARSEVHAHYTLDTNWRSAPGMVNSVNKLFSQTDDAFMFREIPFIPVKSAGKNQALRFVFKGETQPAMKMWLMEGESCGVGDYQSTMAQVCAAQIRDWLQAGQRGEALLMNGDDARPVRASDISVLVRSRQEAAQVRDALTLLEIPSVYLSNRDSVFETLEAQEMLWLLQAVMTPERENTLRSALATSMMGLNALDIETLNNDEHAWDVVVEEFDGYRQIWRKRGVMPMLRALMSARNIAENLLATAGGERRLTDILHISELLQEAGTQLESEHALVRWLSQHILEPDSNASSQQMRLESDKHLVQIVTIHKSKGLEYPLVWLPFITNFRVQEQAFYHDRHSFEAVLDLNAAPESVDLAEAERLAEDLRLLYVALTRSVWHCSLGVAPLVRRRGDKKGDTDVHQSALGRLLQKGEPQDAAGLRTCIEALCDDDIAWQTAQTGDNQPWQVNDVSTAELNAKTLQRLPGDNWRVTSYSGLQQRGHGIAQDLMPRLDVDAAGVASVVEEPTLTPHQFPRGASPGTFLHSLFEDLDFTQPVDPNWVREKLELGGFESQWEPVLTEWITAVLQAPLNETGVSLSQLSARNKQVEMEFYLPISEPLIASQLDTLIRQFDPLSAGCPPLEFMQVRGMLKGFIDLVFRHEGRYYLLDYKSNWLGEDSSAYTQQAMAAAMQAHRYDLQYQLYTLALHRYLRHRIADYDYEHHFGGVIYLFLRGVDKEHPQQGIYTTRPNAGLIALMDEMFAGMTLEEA

With `CCOC(=O)c1ccc(NC(=O)Cn2cnc3cc(C)c(C)cc32)cc1` the IC50 (Exodeoxyribonuclease V) was > 119 µM (inactive), the IC50 [1] was > 80 µM (inactive) and the IC50 [2] was > 119 µM (inactive). The AC50 (INS1) was 4.42 µM (active) and the IC50 (Protein Wnt-3a) was 0.931 µM (active).
For `COc1cc2c(OC(C)=O)c3c(c(-c4ccc5c(c4)OCO5)c2cc1OC)C(=O)OC3`, the EC50 [3] was 8.65 µM (active), the EC50 [4] was 14.4 µM (active) and the EC50 [5] was 4.4 µM (active). For the same compound, the IC50 (Vero) was 21.1 µM (active), the AC50 [6] was 1.8 µM (active) and the AC50 [7] was 1.38 µM (active). The AC50 [8] was 24.5 µM (active) and the IC50 [9] was 1.83 µM (active).
With `O=C(Nc1ccccc1)C1=C[C@H](c2ccccc2)C[C@H](OCCCCO)O1` the EC50 [10] was 11.6 µM (active), the EC50 [11] was 9.7 µM (active) and the EC50 (H4) was 22 µM (active). The EC50 [12] was 27.7 µM (active).
With `CS/C(=C/[N+](=O)[O-])Nc1cccc2c1C(C)CC2(C)C` (stereo not given) the AC50 [13] was 17.5 µM (active), the EC50 (Protein RecA) was 5.21 µM (active) and the IC50 [14] was 44.8 µM (inactive).
